Positions count from the first letter of the chain named.
Tests used:
[1] = target: T1, Androgen Receptor, MDA-PCa-2b (AR T878A/L702H) (Homo sapiens, UniProt P10275, L702H/T878A); assay: Androgen Receptor Degradation-Imaging Assay, MDA-PCa-2b cell line; format: cell-based; conditions: 16 hours treatment, maximum observed degradation
T1 construct: host or cells: MDA-PCa-2b
T1 sequence (P10275 1-920 L702H/T878A): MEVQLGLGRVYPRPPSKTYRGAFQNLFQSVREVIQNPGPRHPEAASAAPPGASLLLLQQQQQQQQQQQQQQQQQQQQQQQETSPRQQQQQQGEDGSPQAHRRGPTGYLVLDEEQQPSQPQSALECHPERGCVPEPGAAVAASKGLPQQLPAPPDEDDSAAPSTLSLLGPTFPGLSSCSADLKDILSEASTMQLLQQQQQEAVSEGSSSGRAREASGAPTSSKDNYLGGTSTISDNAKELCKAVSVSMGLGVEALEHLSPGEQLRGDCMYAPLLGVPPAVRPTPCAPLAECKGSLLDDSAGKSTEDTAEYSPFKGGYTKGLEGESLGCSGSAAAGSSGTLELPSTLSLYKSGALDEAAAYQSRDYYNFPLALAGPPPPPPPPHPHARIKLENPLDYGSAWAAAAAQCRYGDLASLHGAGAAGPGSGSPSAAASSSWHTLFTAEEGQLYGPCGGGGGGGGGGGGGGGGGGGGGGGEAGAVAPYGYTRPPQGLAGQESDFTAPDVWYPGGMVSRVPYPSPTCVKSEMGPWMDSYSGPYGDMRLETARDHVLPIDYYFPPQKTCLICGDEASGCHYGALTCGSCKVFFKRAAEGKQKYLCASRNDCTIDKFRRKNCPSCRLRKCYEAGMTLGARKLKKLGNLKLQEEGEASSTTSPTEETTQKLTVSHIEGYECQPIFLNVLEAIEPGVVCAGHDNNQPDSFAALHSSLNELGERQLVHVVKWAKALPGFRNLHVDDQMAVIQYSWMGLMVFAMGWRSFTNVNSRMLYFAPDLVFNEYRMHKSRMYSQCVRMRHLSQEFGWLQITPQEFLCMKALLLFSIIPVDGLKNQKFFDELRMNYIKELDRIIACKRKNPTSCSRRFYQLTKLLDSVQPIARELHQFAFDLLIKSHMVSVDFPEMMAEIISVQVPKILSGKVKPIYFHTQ
Description: (§1) Degradation of Androgen Receptor (AR) protein in human prostate cancer cell lines (MDA-PCa-2b (AR T878A/L702H), LNCaP (AR T878A), VCaP (AR wild type and amplified) 22RV1 (AR H875Y) and PC3 (AR negative control)) treated with AR PROTACs was quantified using immunofluorescence. Prostate cancer cells were plated (MDA-PCa-2b, and VCaP 16,000 cells/well; LNCaP and 22RV1 32,000 cells/well, and PC3 8,000 cells/well) in an optical bottom 96-well cell culture plate and allowed to attach overnight. The prostate cancer cell lines were treated for 16 hours with a 10-point 3-fold dilution series (dose range=0.02 nM to 333 nM). PC3 is included as an AR negative control and not treated with compound. Cells are fixed and permeabilized with 4% formaldehyde, blocked with 10% goat serum in immunofluorescence (IF) buffer (130 mM NaCl, 7 mM Na2HPO4, 3.5 mM NaH2PO4, 7.7 mM NaN3, 0.1% BSA, 0.2% Triton X, 0.05% Tween 20) prior to overnight incubation with rabbit antibody specific for C terminus of AR (commercially available from RevMaB Biosciences). Following washes with IF buffer, cells were incubated with fluorescent secondary antibody (Goat anti-rabbit Alexa 647; commercially available from Invitrogen) and Hoechst nuclear stain (commercially available from Themo Scientific) prior to quantification of nuclear AR levels via Opera Phenix high-content fluorescent imager using a 40× water objective. Image analysis was performed with Harmony software.
(§2) The averaged nuclear Alexa 647 median fluorescence intensity (MFI) of PC3 cells is subtracted from the nuclear Alexa 647 MFI of PROTAC treated and DMSO control treated cells. % AR remaining is calculated for PROTAC treatments as a percent of the DMSO control (MFI PROTAC treated/MFI DMSO control treated)*100). DC50 and the Dmax values, were obtained from these normalised values fitted with a 4-parameter sigmoidal response curve (Xlfit software). The DC50 is the interpolated concentration of PROTAC corresponding to 50% of the protein being degraded, and the Dmax parameter is the maximum experimentally observed degradation.

[2] = target: T2, Androgen Receptor, VCaP (AR wild type and amplified) (Homo sapiens, UniProt P10275); assay: Androgen Receptor Degradation-Imaging Assay, VCaP cell line; format: cell-based; conditions: 16 hours treatment, maximum observed degradation
T2 construct: endogenous in cells; host or cells: VCaP
T2 sequence (P10275 1-920): T1 sequence (P10275 1-920 L702H/T878A) with H702L, A878T
Description: as §1, §2

Dmax [1]	Dmax [2]	Structure (SMILES)
≥ 80%	≥ 80%	CC1(C)[C@H](NC(=O)c2ccc(N3CCC(CN4CCC(n5ncc6c(N7CCC(=O)NC7=O)nccc65)CC4)CC3)c(F)c2)C(C)(C)[C@H]1Oc1ccc(C#N)c2ncccc12 [Example 39, N-((1r,3r)-3-((8-Cyanoquinolin-5-yl)oxy)-2,2,4,4-tetramethylcyclobutyl)-4-(4-((4-(4-(2,4-dioxotetrahydropyrimidin-1(2H)-yl)-1H-pyrazolo[4,3-c]pyridin-1-yl)piperidin-1-yl)methyl)piperidin-1-yl)-3-fluorobenzamide]
≥ 80%	≥ 80%	CC1(C)[C@H](NC(=O)c2ccc(N3CCC(CN4CCC(n5ncc6c(N7CCC(=O)NC7=O)ccnc65)CC4)CC3)c(F)c2)C(C)(C)[C@H]1Oc1ccc(C#N)c2ncccc12 [Example 40, N-((1r,3r)-3-((8-Cyanoquinolin-5-yl)oxy)-2,2,4,4-tetramethylcyclobutyl)-4-(4-((4-(4-(2,4-dioxotetrahydropyrimidin-1(2H)-yl)-1H-pyrazolo[3,4-b]pyridin-1-yl)piperidin-1-yl)methyl)piperidin-1-yl)-3-fluorobenzamide]
≥ 80%	≥ 80%	CC1(C)[C@H](NC(=O)c2ccc(N3CCC(CN4CCC(n5ccc6c(N7CCC(=O)NC7=O)cccc65)CC4)CC3)cc2)C(C)(C)[C@H]1Oc1ccc(C#N)c2ncccc12 [Example 43, N-((1r,3r)-3-((8-Cyanoquinolin-5-yl)oxy)-2,2,4,4-tetramethylcyclobutyl)-4-(4-((4-(4-(2,4-dioxotetrahydropyrimidin-1(2H)-yl)-1H-indol-1-yl)piperidin-1-yl)methyl)piperidin-1-yl)benzamide]
≥ 80%	≥ 80%	CC1(C)[C@H](NC(=O)c2ccc(N3CCC(CN4CCC(n5ccc6c(N7CCC(=O)NC7=O)ncnc65)CC4)CC3)c(F)c2)C(C)(C)[C@H]1Oc1ccc(C#N)c2ncccc12 [Example 47, N-((1r,3r)-3-((8-Cyanoquinolin-5-yl)oxy)-2,2,4,4-tetramethylcyclobutyl)-4-(4-((4-(4-(2,4-dioxotetrahydropyrimidin-1(2H)-yl)-7H-pyrrolo[2,3-d]pyrimidin-7-yl)piperidin-1-yl)methyl)piperidin-1-yl)-3-fluorobenzamide]
≥ 80%	≥ 80%	CC1(C)[C@H](NC(=O)c2ccc(N3CCC(O)(CN4CCC(n5ncc6c(N7CCC(=O)NC7=O)cccc65)CC4)CC3)c(F)c2)C(C)(C)[C@H]1Oc1ccc(C#N)c2ncccc12 [Example 48, N-((1r,3r)-3-((8-Cyanoquinolin-5-yl)oxy)-2,2,4,4-tetramethylcyclobutyl)-4-(4-((4-(4-(2,4-dioxotetrahydropyrimidin-1(2H)-yl)-1H-indazol-1-yl)piperidin-1-yl)methyl)-4-hydroxypiperidin-1-yl)-3-fluorobenzamide]
≥ 80%	≥ 80%	CC1(C)[C@H](NC(=O)c2ccc(N3CCC4(CC3)CC(N3CCC(n5ncc6c(N7CCC(=O)NC7=O)cccc65)CC3)C4)c(F)c2)C(C)(C)[C@H]1Oc1ccc(C#N)c2ncccc12 [Example 49, N-((1r,3r)-3-((8-Cyanoquinolin-5-yl)oxy)-2,2,4,4-tetramethylcyclobutyl)-4-(2-(4-(4-(2,4-dioxotetrahydropyrimidin-1(2H)-yl)-1H-indazol-1-yl)piperidin-1-yl)-7-azaspiro[3.5]nonan-7-yl)-3-fluorobenzamide]
≥ 80%	≥ 80%	CC1(C)[C@H](NC(=O)c2ccc(N3CCC(CN4CCC(n5ncc6c(N7CCC(=O)NC7=O)c(F)ccc65)CC4)CC3)c(F)c2)C(C)(C)[C@H]1Oc1ccc(C#N)c2ncccc12 [Example 50, N-((1r,3r)-3-((8-Cyanoquinolin-5-yl)oxy)-2,2,4,4-tetramethylcyclobutyl)-4-(4-((4-(4-(2,4-dioxotetrahydropyrimidin-1(2H)-yl)-5-fluoro-1H-indazol-1-yl)piperidin-1-yl)methyl)piperidin-1-yl)-3-fluorobenzamide]
≥ 80%	≥ 80%	CC1(C)[C@H](NC(=O)c2ccc(N3CCC(CN4CCC(n5ccc6c(N7CCC(=O)NC7=O)c(F)ccc65)CC4)CC3)c(F)c2)C(C)(C)[C@H]1Oc1ccc(C#N)c2ncccc12 [Example 51, N-((1r,3r)-3-((8-Cyanoquinolin-5-yl)oxy)-2,2,4,4-tetramethylcyclobutyl)-4-(4-((4-(4-(2,4-dioxotetrahydropyrimidin-1(2H)-yl)-5-fluoro-1H-indol-1-yl)piperidin-1-yl)methyl)piperidin-1-yl)-3-fluorobenzamide]

Source: patent publication US12577231B2, “Androgen receptor PROTACS” (GlaxoSmithKline Intellectual Property Development Limited, priority 2023, dated 2026)
